According to ChEMBL document CHEMBL5726113, “Compounds and methods for kinase modulation, and indications therefor” (2017):

Target: RAF proto-oncogene serine/threonine-protein kinase (Homo sapiens, UniProt P04049)
Test: Biochemical Assay: Assays for biochemical and cell based activity are known in the art, for example, as described in PCT publication WO 2007/002433, the disclosure of which is hereby incorporated by reference as it relates to such assays. For example, the biochemical activity IC50 values are determined with respect to inhibition of B-Raf kinase activity, c-Raf-1 kinase activity, or B-Raf V600E kinase activity, where inhibition of phosphorylation of a peptide substrate is measured as a function of compound concentration. Compounds to be tested are diluted in dimethyl sulfoxide to a concentration of 0.1 mM. These are serially diluted 15 μL into 30 μL of dimethyl sulfoxide seven times in 96 well plates for a total of 8 dilution points, and for each dilution point 1 μL is added to a well of an assay plate. Plates are prepared such that each well in a 384 well plate contains 1 μL of compound in 10 μL volume with 0.1 ng Raf enzyme (i.e. any of B-Raf, c-Raf-1 or B-Raf V600E, Upstate Biotechnology or prepared by methods known to one of skill in the art), 50 mM HEPES, pH 7.0, 50 mM NaCl, 2 mM MgCl2, 1 mM MnCl2, 0.01% Tween-20, 1 mM DTT, and 100 nM biotin-MEK1 as substrate. The reaction is started with addition of 10 μL of 200 μM ATP (i.e. final 100 μM ATP). […]

RAF proto-oncogene serine/threonine-protein kinase, sequence (P04049 whole entry): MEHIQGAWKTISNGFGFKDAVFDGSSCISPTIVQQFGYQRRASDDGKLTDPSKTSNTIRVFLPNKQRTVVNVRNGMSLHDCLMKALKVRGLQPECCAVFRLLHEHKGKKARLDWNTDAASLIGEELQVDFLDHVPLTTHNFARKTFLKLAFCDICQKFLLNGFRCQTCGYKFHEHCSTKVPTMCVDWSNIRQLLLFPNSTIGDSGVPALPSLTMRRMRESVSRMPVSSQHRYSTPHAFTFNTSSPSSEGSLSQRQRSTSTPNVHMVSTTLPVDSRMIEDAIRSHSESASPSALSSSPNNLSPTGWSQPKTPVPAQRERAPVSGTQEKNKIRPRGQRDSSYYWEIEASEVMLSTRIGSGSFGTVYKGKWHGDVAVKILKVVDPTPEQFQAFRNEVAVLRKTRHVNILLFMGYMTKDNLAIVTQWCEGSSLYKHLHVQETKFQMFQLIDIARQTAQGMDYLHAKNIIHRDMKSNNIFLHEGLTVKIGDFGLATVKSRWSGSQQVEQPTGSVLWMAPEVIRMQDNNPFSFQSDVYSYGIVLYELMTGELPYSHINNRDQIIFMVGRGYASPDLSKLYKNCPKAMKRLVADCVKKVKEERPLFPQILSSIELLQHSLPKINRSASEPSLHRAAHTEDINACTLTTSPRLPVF

## CCCS(=O)(=O)Nc1ccc(F)c(C(=O)c2c[nH]c3ncnc(Nc4ccccc4)c23)c1F
  IC50: < 100 nM
